Where two headings read alike, the source gives them in different places.
What was measured:
[1] = Lipidic metabolism in the normally fed rat (plasma free fatty acids); format: in vivo, Sprague Dawley rats; settings: single dose 100 mg/kg i.p., after two hours; normolipaemic rats; significant
Experimental: The tests were conducted on Sprague Dawley rats of mean weight of 200 g. which were normolipaemic and to which the products had been administered intraperitoneally in a single dose of 100 mg./kg. After two hours the animals were slaughtered and the free fatty acids in the plasma were measured.

[2] = Triton hyperlipaemia in the rat (plasma cholesterol and triglycerides); format: in vivo, Sprague Dawley rats; settings: 100 mg/kg i.p. (50 mg/kg immediately after Triton, 50 mg/kg after 4 hours); significant
Experimental: The products under examination were injected intraperitoneally at the dosage of 100 mg./kg. of which 50 mg./kg. immediately after the Triton and 50 mg./kg. after 4 hours. After a further 4 hours the animals were slaughtered and the cholesterol and triglycerides in the plasma were measured.

[3] = Choleretic activity in the rat, intraperitoneal administration (bile volume and dry residue); format: in vivo, Sprague Dawley rats; settings: for increase of the dry residue of the bile in comparison with the basal values / increase of the volume of the bile in comparison with the basal values / Bile Volume 3 Hours after Treatment / Dry Residue 3 Hours after Treatment: 100 mg/kg i.p.; for increase of the dry residue of the bile in comparison with the basal values / increase of the volume of the bile in comparison with the basal values: measured from 1 hour to 4 hours after administration; for Bile Volume 3 Hours after Treatment / Dry Residue 3 Hours after Treatment: awake rat; for choleretic action (in words): Table 2, 100 mg/kg i.p., bile volume and dry residue three hours after treatment
Experimental: (§1) The choleretic activity was determined in accordance with the technique described by R. Lambert in "Surgery of the Digestive System in the Rat" 1965. Sprague Dawley rats of mean weight of 230 g. were used. The products were injected intraperitoneally at the dosage of 100 mg/kg., the volume of the bile and the corresponding dry residue being measured then from 1 hour to 4 hours after administration. […] These increases are significant.
2. Choleretic Activity--Intra-Peritoneal Administration
The choleretic activities of catechin and catechin pentacetyl ferulate were determined in the manner described in paragraph A above.

[4] = Olive oil-induced hyperlipaemia in the rat (plasma triglycerides); format: in vivo, Sprague Dawley rats; settings: for diminution of the concentration of triglycerides in the plasma in comparison with the controls: 100 mg/kg orally, two treatments, 2 h before and 2 h after olive oil, significant; for Triglycerides: 100 mg/kg per os, controls (water) 171.5±18.6; for hypolipaemic effect (in words): Table 3, 100 mg/kg per os
Experimental: The hyperlipaemic activity was determined in Sprague Dawley rats of mean weight of 160 g., in which hyperlipaemia was induced by means of administration of 20 ml./kg. of olive oil orally in animals which had been fasting for 16 hours. Two treatments were effected with the products under examination (upon groups of 18 animals), the first two hours before the olive oil, the second two hours afterwards. The doses were administered orally and were equal to 100 mg./kg.
3. Hypolipaemic Effect--Effect on Olive Oil-Induced Hyperlipaemia
The hypolipaemic activity of catechin and epicatechin was determined in the manner described in paragraph B1 above.

[5] = Choleretic activity in the rat, oral administration (bile volume and dry residue); format: in vivo, Sprague Dawley rats; settings: 200 mg/kg per os; for Bile Volume 2 Hours after Treatment / Dry Residue 2 Hours after Treatment / Bile Volume 3 Hours after Treatment / Dry Residue 3 Hours after Treatment: awake rat
Experimental: as §1
1. Choleretic Activity--Oral Administration
The choleretic activities of catechin and epicatechin were determined in the manner described in paragraph A above except that the substances under test were administered per os at the rate of 200 mg./kg.

Toxicity (LD50) = format: in vivo; settings: for LD50: in vivo
[6] = epicatechin compared with catechin

| Structure (SMILES) | diminution of the concentration of free fatty acids in the plasma in comparison with the controls [1] | diminution of the concentration of cholesterol in the plasma in comparison with the controls [2] | diminution of the concentration of triglycerides in the plasma in comparison with the controls [2] | increase of the dry residue of the bile in comparison with the basal values [3] | increase of the volume of the bile in comparison with the basal values [3] | diminution of the concentration of triglycerides in the plasma in comparison with the controls [4] | Triglycerides [4] | hypolipaemic effect (in words) [4] | Bile Volume 2 Hours after Treatment [5] | Dry Residue 2 Hours after Treatment [5] | Bile Volume 3 Hours after Treatment [5] | Dry Residue 3 Hours after Treatment [5] | Bile Volume 3 Hours after Treatment [3] | Dry Residue 3 Hours after Treatment [3] | choleretic action (in words) [3] | also measured |
| --- | --- | --- | --- | --- | --- | --- | --- | --- | --- | --- | --- | --- | --- | --- | --- | --- |
| CC1(C)Oc2ccc([C@H]3Oc4cc(O)cc(O)c4C[C@@H]3O)cc2O1 [catechin acetonide] | 25.8% | – | – | – | – | – | – | – | – | – | – | – | – | – | – | – |
| CC(=O)Oc1cc(OC(C)=O)c2c(c1)O[C@H](c1ccc(OC(C)=O)c(OC(C)=O)c1)[C@@H](OC(C)=O)C2 [Example 4, Catechin pentaacetate] | – | 16.3% | 23.1% | – | – | – | – | – | – | – | – | – | – | – | – | – |
| Oc1cc(O)c2c(c1)O[C@H](c1ccc(O)c(O)c1)[C@H](O)C2 [Epicatechin, epicatechin] | – | – | – | 35% | 38% | 42% | 98.6±12.0 mg/100 ml | marked hypolipaemic effect | 1.02 ± 0.07 mL | 18.1 ± 2.0 mg | 0.89 ± 0.09 mL | 16.5 ± 2.13 mg | – | – | – | choleretic activity (in words) [5, 6]: markedly higher choleretic activity than catechin; duration of choleretic effect (in words) [5, 6]: the choleretic effect is of longer duration |
| O=C(Oc1cc(OC(=O)c2cccnc2)c2c(c1)O[C@H](c1ccc(OC(=O)c3cccnc3)c(OC(=O)c3cccnc3)c1)[C@@H](OC(=O)c1cccnc1)C2)c1cccnc1 [pernicotinylcatechin] | 13.1% | 21.1% | 28.7% | – | – | 27% | – | – | – | – | – | – | – | – | – | – |
| COc1cc(C=CC(=O)Oc2cc(OC(=O)C=Cc3ccc(OC(C)=O)c(OC)c3)c3c(c2)O[C@H](c2ccc(OC(=O)C=Cc4ccc(OC(C)=O)c(OC)c4)c(OC(=O)C=Cc4ccc(OC(C)=O)c(OC)c4)c2)[C@@H](OC(=O)C=Cc2ccc(OC(C)=O)c(OC)c2)C3)ccc1OC(C)=O [Catechin pentacetylferulate, catechin peracetylferulate] | – | – | – | 36% | 64% | – | – | – | – | – | – | – | 0.88 ± 0.05 mL | 15.6 ± 0.60 mg | marked choleretic action | LD50 i.p. (Toxicity (LD50); i.p.): > 1000 mg/kg |
| Oc1cc(O)c2c(c1)O[C@H](c1ccc(O)c(O)c1)[C@@H](O)C2 [Catechin, catechin, reference compound] | – | – | – | – | – | – | 120.7±17.6 mg/100 ml | no statistically significant hypolipaemic effect | 0.84 ± 0.02 mL | 18.2 ± 0.37 mg | 0.81 ± 0.03 mL | 16.6 ± 0.81 mg | 0.62 ± 0.08 mL | 10.0 ± 4.20 mg | no statistically significant choleretic effect | LD50 (Toxicity (LD50); ip, read-out: LD50 i.p.): > 1000 mg/kg; LD50 (Toxicity (LD50); po, per os, read-out: LD50 per os): > 2000 mg/kg |
